Reference: patent publication US5244883A, “Nonapeptide bombesin antagonists” (The Administrators of the Tulane Educational Fund, priority 1990, dated 1993)
Where no end group is shown, it is not given here.

Legend:
3T3 CELLS = type: cell-based, Murine; details: GRP 3 ng/ml alone, no antagonist; basal 207000 ± 4200
Protocol: (C) Inhibition of ^3 H-Thymidine incorporation by 3T3cells. SCLC cells were used 2 to 4 days after passage. Single cell suspensions were prepared by washing the cells (twice with PBS then pipetting them in PBS containing 0.2 g/liter glucose, 0.2 g/liter EDTA, and 14 mM lignocaine hydrochloride at 37° C. until the suspension appeared to be uniform (2-4 min). The cells were washed three times and resuspended in HITES without FCSB. Cultures were set up at 1.34×10^5 cells plated on day 0, all peptides added at same time in 1 ml. of RPMI-1640 medium plus HITES and 0.125% albumin. 48 hours later, 1 uc. of tritiated thymidine was added to each well and incubation continued for an additional 24 hours. Cells then were washed and deposited on glass filter paper and washed with ice cold 5% trichloro-acetic acid. Filter paper placed in vials containing scintillation fluid and counted for 1 minute. | 348,000 - 207,000 = 141,000 was taken as the stimulation

serum gastrin = test: Serum gastrin inhibition in vivo after GRP stimulation; details: rat, eight minutes after GRP 3 μg/100 g BW alone; control 16.7
Protocol: Bombesin analogs Peptides (5), (10) and (2) were tested in vivo on serum gastrin inhibition after GRP stimulation.

**Q.** Which results are given for “GRP: gastrin releasing peptide, peptide amide containing 27 amino-acid with bombesin-like properties; agonist stimulus (VPLPAGGGTVLTKMYPRGNHWAVGHLM-NH2; UniProt P07492 24-50, looked up)”?
**A.** DPM ± S.E. (3T3 CELLS): 348000 ± 15300 DPM; serum gastrin level (serum gastrin): 105 pg/mL
